From patent US7973047B2, “Beta-Secretase modulators and methods of use” (Amgen Inc., priority 2010, dated 2011)
Read-outs that look alike come from different tables or passages of the source.

Test system: Aβ40 in conditioned medium of cells stably expressing Amyloid Precursor Protein (APP)
Assay: BACE cell-based assay: Aβ40 in conditioned medium by sandwich ELISA
In short: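 Aβ40 in conditioned medium was read by time-resolved fluorescence sandwich ELISA (capture pAb40, detection biotinylated 6E10, 4° C incubations). Compounds were applied for 24 h to cells stably expressing APP, at 10 doses from 100 or 10 μM top, 0.1% DMSO. IC50 derived from percent of control.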

[1] = cell based assay data of Table 4, unit inferred, read-out: Cell Assay
[2] = cell based assay data, Table 4, unit inferred, read-out: Cell Assay

Row | IC50 [1] [nM] | IC50 [2] [nM] | Compound | further results
1 |  | 78.7 | CC(=O)N[C@@H](CC1CCC1)[C@H](O)CN[C@H]1CC2(CCC2)Oc2ncc(CC(C)(C)C)cc21 [compound 809, N-((1S,2R)-1-(cyclobutylmethyl)-3-(((4′S)-6′-(2,2-dimethylpropyl)-3′,4′-dihydrospiro[cyclobutane-1,2′-pyrano[2,3-b]pyridin]-4′-yl)amino)-2-hydroxypropyl)acetamide] | 
2 | 36.4 |  | CC(C)(C)Cc1cnc2c(c1)[C@@H](NC[C@@H](O)[C@H](Cc1ccc(F)cc1)NC(=O)C(F)F)CC1(CCC1)O2 [compound 630] | 
3 |  | 132 | CC(=O)N[C@@H](Cc1ccc(Cl)cc1)[C@H](O)CN[C@H]1CC2(CCCC2)Oc2ncc(CC(C)(C)C)cc21 [compound 817] | 
4 | 29 |  | CCc1cnc2c(c1)[C@@H](NC[C@@H](O)[C@H](Cc1cccc(F)c1)NC(C)=O)CC1(CCC1)O2 [compound 566] | 
5 |  | 5.14 | CC(=O)N[C@@H](Cc1cc(F)cc(NC2CCOCC2)c1)[C@H](O)CN[C@H]1CC2(CCC2)Oc2ncc(CC(C)(C)C)cc21 [compound 805] | 
6 |  | 1.82 | CC(=O)N[C@@H](Cc1cncc(F)c1)[C@H](O)CN[C@H]1CC2(CCC2)Oc2ncc(CC(C)(C)C)cc21 [compound 830, N-((1S,2R)-3-(((4′S)-6′-(2,2-dimethylpropyl)-3′,4′-dihydrospiro[cyclobutane-1,2′-pyrano[2,3-b]pyridin]-4′-yl)amino)-1-((5-fluoro-3-pyridinyl)methyl)-2-hydroxypropyl)acetamide] | 
7 |  | 2.03 | CC(=O)N[C@@H](Cc1cc(F)cc(F)c1F)[C@H](O)CN[C@H]1CC2(CCC2)Oc2ncc(CC(C)(C)C)cc21 [compound 871] | 
8 |  | 1950 | N-((1S,2R)-3-(((2R,4S)-1′-acetyl-6-ethyl-3,4-dihydrospiro[chromene-2,3′-pyrrolidin]-4-yl)amino)-2-hydroxy-1-(phenylmethyl)propyl)acetamide N-((1S,2R)-3-(((2S,4S)-1′-acetyl-6-ethyl-3,4-dihydrospiro[chromene-2,3′-pyrrolidin]-4-yl)amino)-2-hydroxy-1-(phenylmethyl)propyl)acetamide [compound 812] | 
9 | 127 |  | CCc1cc2c(s1)CC1(CCC1)C[C@@H]2NC[C@@H](O)[C@H](Cc1ccccc1)NC(C)=O [compound 653, N-((1S,2R)-3-(((4S)-2-ethyl-4,7-dihydro-5H-spiro[1-benzothiophene-6,1′-cyclobutan]-4-yl)amino)-2-hydroxy-1-(phenylmethyl)propyl)acetamide] | 
10 | 6.32 |  | CC(=O)N[C@@H](Cc1cc(C)nc(Cl)c1)[C@H](O)CN[C@H]1CC2(CCC2)Oc2ncc(CC(C)(C)C)cc21 [compound 644, N-((1S,2R)-1-((2-chloro-6-methyl-4-pyridinyl)methyl)-3-(((4′S)-6′-(2,2-dimethylpropyl)-3′,4′-dihydrospiro[cyclobutane-1,2′-pyrano[2,3-b]pyridin]-4′-yl)amino)-2-hydroxypropyl)acetamide] | 
11 |  | 2.46 | CC(=O)N[C@@H](Cc1cccc(F)c1)[C@H](O)CN[C@H]1C[C@]2(C[C@H](C)C2)Oc2ncc(CC(C)(C)C)cc21 [compound 770, N-((1S,2R)-3-(((1s,3R,4′S)-6′-(2,2-dimethylpropyl)-3-methyl-3′,4′-dihydrospiro[cyclobutane-1,2′-pyrano[2,3-b]pyridin]-4′-yl)amino)-1-((3-fluorophenyl)methyl)-2-hydroxypropyl)acetamide] | 
12 |  | 1.55 | CC(=O)N[C@@H](Cc1cc(F)cc(F)c1)[C@H](O)CN[C@H]1CC2(CC(C)C2)Oc2ncc(CC(C)(C)C)cc21 (stereo partly drawn) [compound 764] | 
13 |  | 2.05 | CC(=O)N[C@@H](Cc1cc(F)cc(F)c1)[C@H](O)CN[C@H]1CC2(CCC2)Oc2ncc(CC(C)(C)F)cc21 [compound 835] | 
14 |  | 45.4 | CC(=O)N[C@@H](Cc1ccc(F)cc1)[C@H](O)CN[C@H]1CC(C)(C)Oc2cnc(CC(C)(C)C)cc21 [compound 799] | 
15 |  | 5370 | CCc1ccc2c(c1)[C@@H](NC[C@@H](O)[C@H](Cn1cccn1)NC(C)=O)CC1(CCC1)O2 [compound 734] | 
16 |  | 2950 | CC(=O)N[C@@H](Cc1cc(F)cc(F)c1)[C@H](O)CN[C@H]1CC2(CCC2)Oc2cc(F)ccc21 [compound 804] | 
17 | 3.37 |  | CC(=O)N[C@@H](Cc1ccnc(Cl)c1)[C@H](O)CN[C@H]1CC2(CCC2)Oc2ncc(CC(C)(C)C)cc21 [compound 642, N-((1S,2R)-1-((2-chloro-4-pyridinyl)methyl)-3-(((4′S)-6′-(2,2-dimethylpropyl)-3′,4′-dihydrospiro[cyclobutane-1,2′-pyrano[2,3-b]pyridin]-4′-yl)amino)-2-hydroxypropyl)acetamide] | 

Continued, compound first:

Row | Compound | IC50 [1] [nM] | IC50 [2] [nM] | further results
18 | CCCCC(O)c1cnc2c(c1)[C@@H](NC[C@@H](O)[C@H](Cc1ccc(F)cc1)NC(C)=O)CC1(CCC1)O2 (stereo partly drawn) [compound 684] | 2860 |  | 
19 | CC(=O)N[C@@H](Cc1cccc(F)c1)[C@H](O)CN[C@H]1CC(C)(C)Oc2cnc(CC(C)(C)C)cc21 [compound 798] |  | 6.72 | 
20 | CN(C)CC(=O)N[C@@H](Cc1cccc(C#N)c1)[C@H](O)CN[C@H]1CC2(CCC2)Oc2ccc(Br)cc21 [compound 727] |  | 300 | 
21 | CC(=O)N[C@@H](Cc1ccccc1)[C@H](O)CN[C@H]1CC2(CCC2)Oc2ncc(C3CCCO3)cc21 (stereo partly drawn) [Example 384] |  |  | IC50 (cells stably expressing APP, 24 h incubation with compound, Aβ40 in supernatant by sandwich ELISA, read-out: IC50 values in the cell-based assay (inhibition or reduction of Aβ40)): ≤ 5000 nM
22 | COc1nc(CC(C)(C)C)cc2c1OC1(CCC1)C[C@@H]2NC[C@@H](O)[C@H](Cc1ccc(F)cc1)NC(C)=O [compound 613] | 103 |  | 
23 | CCc1cc2c(c(N3CCOCC3)c1)OC(C)(C)C[C@@H]2NC[C@@H](O)[C@H](Cc1cccc(C#N)c1)NC(C)=O [compound 532] | 11.2 |  | 
24 | CC(=O)N[C@@H](Cc1ccccc1)[C@H](O)CN[C@H]1CC(C)(C)Oc2cnc(CC(C)(C)C)cc21 [compound 794] |  | 34.8 | 
25 | CC(=O)N[C@@H](Cc1cccc(C#N)c1)[C@H](O)CN[C@H]1CC2(CCC2)Cc2ncc(C)cc21 [compound 542, N-((1S,2R)-1-((3-cyanophenyl)methyl)-2-hydroxy-3-(((5′S)-3′-methyl-5′,8′-dihydro-6′H-spiro[cyclobutane-1,7′-quinolin]-5′-yl)amino)propyl)acetamide] | 64.6 |  | 
26 | CC(=O)N[C@@H](Cc1cccc(F)c1)[C@H](O)CN[C@H]1C[C@]2(C[C@H](C)C2)Oc2ncc(CC(C)C)cc21 [compound 617, N-((1S,2R)-1-((3-fluorophenyl)methyl)-2-hydroxy-3-(((1s,3R,4′S)-3-methyl-6′-(2-methylpropyl)-3′,4′-dihydrospiro[cyclobutane-1,2′-pyrano[2,3-b]pyridin]-4′-yl)amino)propyl)acetamide] | 2.98 |  | 
27 | CC(=O)N[C@@H](Cc1cc(F)cc(F)c1)[C@H](O)CN[C@H]1CC2(CCC2)Oc2cc(Br)ccc21 [compound 787] |  | ≥ 10000 | 
28 | CC(=O)N[C@@H](CC1CC1)[C@H](O)CN[C@H]1CC2(CCC2)Oc2ncc(CC(C)(C)CC(F)F)cc21 [compound 724, N-((1S,2R)-1-(cyclopropylmethyl)-3-(((4′S)-6′-(4,4-difluoro-2,2-dimethylbutyl)-3′,4′-dihydrospiro[cyclobutane-1,2′-pyrano[2,3-b]pyridin]-4′-yl)amino)-2-hydroxypropyl)acetamide] |  | 184 | 
29 | CC(=O)N[C@@H](Cc1cc(F)cc(Cl)c1)[C@H](O)CN[C@H]1CC2(CCC2)Oc2ncc(CC(C)C)cc21 [compound 847] |  | 4.27 | 
30 | CC(=O)N[C@@H](Cc1ccc(F)cc1)[C@H](O)CN[C@H]1CC2(CCC2)Oc2ncc(CC(C)C)cc21 [compound 845] |  | 11.4 | 
